Results taken from ChEMBL document CHEMBL3507680, “University of Dundee, Gates Library screen for HepG2 cell viability”.

test: Human HepG2 cell viability assay in 384 well format; format: toxicity, cell-based; parameters: dose 125 nL, time 70.5 hour; cytotoxicity at 70.5 h: concentration not given beside the values; settings: HepG2 cells, read-out: Inhibition

Compound | cytotoxicity at 70.5 h [%]
CC(=O)N1CCC(c2nccnc2CNC(=O)c2cc[nH]n2)CC1 | -4.85
CN(Cc1ccc(F)cc1)CC1(O)CCN(C(=O)c2ccncc2)C1 (stereo not drawn) | -5.43
CN1CCN(C(=O)C2(NC(N)=O)CCCCC2)Cc2ccccc21 | -7.76
CCN(Cc1nc(C2CC2)no1)Cc1ccc(C#N)cc1F | -3.69
Cc1nc2c(C(=O)O)cccc2n1-c1ccc(C(=O)N2CCCC2)o1 | 7.08
Cc1cccnc1NC(=O)C1CCN(C(=O)C(C)C)CC1 | -19.2
O=C(NCc1ccc(Cl)s1)c1ccc(N2CCOC2=O)cc1 | -7.09
Cc1noc(C)c1C(=O)N1CCCN(Cc2nccn2C(C)C)CC1 | 0.0993
Cc1cc(C)nc(N2CCC(c3cc(CCO)[nH]n3)C2)n1 (stereo not drawn) | -12.4
CCN(CC)c1ncccc1CNCc1ccc(-c2ccn[nH]2)s1 | -6.37
O=S(=O)(c1ccccc1Cl)N1CCC2(CC1)OCCS2 | -9.74
C[C@@H]1CN(Cc2nc(Cc3ccccc3F)no2)C[C@H](C)O1 | 32.5
COc1ccc(CN(C)CC2(O)CCN(C(=O)c3cccn3C)C2)cc1 (stereo not drawn) | 36.1
COCCNc1c(C#N)c2c(c3nncn13)CN(C)CC2 | -5.01
COCCc1noc(-c2ccc(=O)[nH]c2)n1 | 2.52
COc1ccc(NC(C)C(=O)N2CCCC2)cn1 (stereo not drawn) | -1.03
CC(C)CCOCCNC(=O)Nc1cc(C(F)(F)F)c[nH]c1=O | -2.4
O=C(O)CC1COCCN1CCCc1ccccc1 (stereo not drawn) | -11.2
COCCN1CCN(Cc2cnc(C3(C)CCCCO3)nc2)CC1 (stereo not drawn) | 0.727
COc1cc(-c2nc(N)n[nH]2)cc(OC)c1OC | -8.57
COc1ccc(C2CCCCCN2S(C)(=O)=O)cc1 (stereo not drawn) | 1.84
CC(=O)NC1CCN(c2ncnc3c2c(C)nn3C)C1 (stereo not drawn) | -7.17
Cc1cnn(CC2CN(CCCS(C)(=O)=O)CCO2)c1 (stereo not drawn) | -0.801

Compound | cytotoxicity at 70.5 h [%]
COCC(=O)Nc1ccc([C@@H](O)[C@H]2COCC(=O)N2C)cc1 | -1.45
Cc1noc(-c2cccnc2N(C)Cc2cscn2)n1 | -5.46
CCCN1Cc2nc(N3CCCC3)ncc2C1=O | -5.27
O=C1CCC2(CCCN(C(=O)c3cnccn3)CC2)N1 (stereo not drawn) | 1.43
Cc1cccnc1N1CCC(c2nccn2Cc2cscn2)CC1 | -0.624
c1cnc2c(c1)nc1n2[C@@H](CNCc2nccs2)COC1 | -8.24
CCC[C@H]1CN(S(=O)(=O)c2ccc(Cl)cc2)C[C@@H]1NC(C)=O | 22.5
Cc1nnc2n1CCN(CCC(=O)Nc1sccc1C#N)C2 | -12.9
Cc1nc(-c2cc(C(=O)NC(C)(C(=O)O)C(C)C)co2)cs1 (stereo not drawn) | -7.3
Cn1cc(-c2ncc(C(=O)NCCCn3ccccc3=O)s2)cn1 | -10.1
COc1ccccc1NCC(=O)NCc1cc[nH]n1 | 26.9
Cc1nc(NC(=O)NC2CC(=O)N(C)C2)nn1C (stereo not drawn) | 7.5
CC(=O)C1(c2ccccc2)CCN(C(=O)c2ccc3nnnn3c2)CC1 | 2.77
CCC(=O)NC1CCCN(C(=O)Nc2cccc(COC(C)C)c2)C1 (stereo not drawn) | 7.06
CCC(NC(=O)c1coc(COc2cccc(F)c2F)n1)C(=O)NC (stereo not drawn) | -9.68
CCOc1ncccc1CNC(=O)Nc1ccccc1 | 16.2
O=C(CN1CCCS1(=O)=O)NCCOc1ccc2c(c1)CCC2 | 5.58
CNC(=O)[C@@H]1C[C@@H](N)CN1C1CCN(c2ccccc2F)CC1 | -7.57
CC(NCc1cnc(N2CCOCC2)nc1)c1ccc(Cl)s1 (stereo not drawn) | -9.24
COc1ccc(CNCc2nnc3n2CC(C(F)(F)F)CC3)cc1 (stereo not drawn) | 26.4
Cc1ccc2cccc(S(=O)(=O)N(C)C3CCCN(C)C3)c2n1 (stereo not drawn) | 0.353
O=C(c1cnccn1)N1C[C@@H]2CC[C@H](C1)N(S(=O)(=O)c1cccnc1)C2 | 7.54
CCc1c(C)nn2c(O)cc(C3CCN(C(=O)c4ccn(C)n4)C3)nc12 (stereo not drawn) | 16.4

Compound | cytotoxicity at 70.5 h [%]
COc1ccnc(N2CCN(C(=O)Cc3csc(C)n3)CC2)n1 | 1.2
CN(CCc1ccccc1)C1CCCN(Cc2nccn2C)C1 (stereo not drawn) | -4.92
CCCc1n[nH]c(C2CN(C(=O)CCCn3cccn3)CCO2)n1 (stereo not drawn) | -7.13
CS(=O)(=O)N[C@@H]1CCN(Cc2cccnc2)[C@H]1Cc1ccccc1 | -11.7
CC(C)N1CCOCC2(CN(Cc3nccs3)CCO2)C1 (stereo not drawn) | -0.368
Cc1cc(N2CCN(C(=O)[C@@H]3C[C@@H]4C=C[C@H]3C4)CC2)cc(C)n1 | -15.6
NS(=O)(=O)c1ccc(N2CCN(CCCc3cn[nH]c3)CC2)cc1 | 15.8
CCCS(=O)(=O)N1CCN(C(=O)CO)CC1 | -6.95
COCCOc1ccc(NC(=O)N2CCCC2c2ccsc2)cn1 (stereo not drawn) | -5.25
COc1ccc(C(=O)NCC(c2cccn2C)N2CCCC2)c(OC)c1 (stereo not drawn) | 14.2
CC(C)N1CCC(Cc2cnc(-c3cccc(C(=O)O)c3)cn2)C1 (stereo not drawn) | -19.1
Cc1ccc(CN2Cc3c(C(=O)N4CCN(C)CC4)nn(C)c3C2)s1 | -3.87
CN(C)CC1CN(Cc2coc(-c3cccc(F)c3)n2)CCO1 (stereo not drawn) | 3.34
Cc1cccc(NC(=O)N2Cc3c(CN(C)C)nn(C)c3C2)c1 | -3.74
CCN(C(=O)Cn1cc(Cl)cn1)c1ccccc1 | 5.93
CCc1nc2n(n1)CCCC2NC(=O)Nc1ccc(F)cc1C#N (stereo not drawn) | 1.79
Cc1cccc(CNC2CCCc3c2cnn3Cc2ccccc2)c1 (stereo not drawn) | -7.85
Cc1ccc2nc(C)c(C)c(C(=O)NCCCn3ccnn3)c2c1 | 3.79
CC(NC(=O)NCC1(c2ccc(F)cc2)CCCC1)c1nncn1C (stereo not drawn) | -3.48
Cn1ccc(CN2CCC(CC(=O)N3CCCC3)CC2)cc1=O | -6.85
COc1cnc(C2(O)CCN(C(=O)c3ccco3)CC2)c(OC)n1 | -9.83
CCOc1nnc(CN(CC)CC(=O)NC(C)(C)C)s1 | 10.3
CSCCNC(=O)c1cc(Br)cn1C(C)C | -1.74

Compound | cytotoxicity at 70.5 h [%]
Cc1ccc(NS(=O)(=O)c2cc3c(c(C(=O)O)c2)OCCO3)c(F)c1 | 44.6
Cc1nnc(NCc2cccc(OCc3ccccn3)c2)c(C#N)c1C | -4.44
CO[C@H]1CCN(C(=O)c2cc(C)on2)[C@H]1Cc1ccncc1 | -7.23
Cc1noc(C)c1C(=O)N1C[C@H]2CC[C@@H]1CN(c1cnccn1)C2 | -5.44
O=C(NC1CC1)[C@H]1CC[C@@H]2[C@@H](CCN2CCOCc2ccccc2)O1 | -8.73
Cn1ncc2c(NCC(=O)N3CCNCC3)nc(C(C)(C)C)nc21 | -1.24
CCc1n[nH]c(C2CN(C(=O)c3ccc4c(c3)CCC4)CCO2)n1 (stereo not drawn) | -2.27
Cc1nc(C2CCCN(C(=O)c3csc(C)n3)C2)no1 (stereo not drawn) | 4.29
Cc1nc[nH]c1CN1CCN(C(=O)c2cccs2)[C@H]2CS(=O)(=O)C[C@H]21 | -8.73
Cc1cc(C(=O)N2C[C@@H]3CN(S(C)(=O)=O)CCO[C@@H]3C2)c(C)o1 | 19.5
Cc1cnn(CC2CN(Cc3nc(C)c(C)o3)CCO2)c1 (stereo not drawn) | 1.07
c1cc(-c2cnccn2)cc(-c2ccn(CCN3CCCC3)n2)c1 | 12.2
Cc1ccc(CN2CCc3[nH]nc(C(=O)N(C)C)c3C2)o1 | -0.827
Cc1nc2ccc(-n3ncnc3[C@@H]3CCCN3S(C)(=O)=O)cc2s1 | 12.3
CCN(Cc1cc(F)c(OC)c(Cl)c1)Cc1noc(CC(C)C)n1 | -10.5
O=C1CO[C@@H]2CN(S(=O)(=O)c3ccccc3F)C[C@H]2N1 | -3.37
COc1cccc2c1OCC(C(=O)N1CCC(N3CCOC3=O)CC1)C2 (stereo not drawn) | -8.52
CN1CCN(c2nc(-c3cnn(C)c3)cs2)CC1 | -6.42
COCC1CN(C(=O)c2cccn2C)Cc2c1cnn2CC1CC1 (stereo not drawn) | -1.46
Cc1ccc(CN(CCCO)Cc2nc3ccccc3[nH]2)s1 | -3.29
CC(=O)N(C)c1nc(Cn2nnnc2C(C)C)cs1 | -6.77
CC(C)(C)c1cc(NC(=O)C2COCCO2)n(-c2ccccn2)n1 (stereo not drawn) | -0.749
COC(=O)c1ccc(C(=O)N2CCc3c(ncn3C3CC3)C2)cc1 | -5.37

Compound | cytotoxicity at 70.5 h [%]
O=C(C1CCCC1)N1CCO[C@H]2[C@H](OCC3CCOCC3)CC[C@@H]21 | -5.12
CC(C)NC(=O)[C@H]1C[C@H]2NCCO[C@@H]2C1 | 3.88
CCC(O)CN(CC(=O)Nc1cc(C)no1)c1ccccc1 (stereo not drawn) | -3.59
N#Cc1ccnc(N2CCN(CC(O)c3c(F)cccc3F)CC2)c1 (stereo not drawn) | 15.3
Cn1cc2ncn(CCC3CCN(Cc4ccccc4)C3)c(=O)c2n1 (stereo not drawn) | -7
OC(CN1CCCCCCC1)c1ccc(F)cc1 (stereo not drawn) | 3.53
COCC1CN(CCOc2ccc(Cl)cc2)Cc2c1cnn2C (stereo not drawn) | -6.25
COc1cc(Cl)cc(C(=O)N2CCC3(CC2)CNC(=O)C3)c1 | -15.2
Cc1nn(C)c(C)c1C1CCCN1Cc1nc(-c2ccccn2)no1 (stereo not drawn) | -5.05
Cn1c(=O)c2c(n3ncnc13)NC(=O)CC2c1cccc(Br)c1 (stereo not drawn) | -9.38
CC1=C(c2ccc(Cl)cc2)S(=O)(=O)N=C1N1CCc2ccccc21 | -2.07
COc1c(CNC2(c3noc(C)n3)CCC2)c(C)nn1C | -7.32
CCOC(=O)N1CCN(C(=O)CCn2cccc2)CC1 | 7.81
CCc1nccn1CCCn1ccnc1-c1[nH]cnc1C | 5.17
CS(=O)(=O)Nc1cccc(CNC(=O)CCC(=O)c2cccs2)c1 | -3.24
CCC(C(=O)NC)N(c1cccc(C)c1)S(C)(=O)=O (stereo not drawn) | 11.9
Cc1noc(-c2cnc(NC(C)C)nc2-c2ccco2)c1C | -13.3
CC(Cn1cccn1)NCc1nc(-c2cccc(Cl)c2)no1 (stereo not drawn) | 7.24
COc1ccc(CN2C[C@@H](CN(C)C)[C@@H](CO)C2)c(Cl)c1OC | -7.01
Cc1nc(CN(C)C(=O)C2CCC(=O)N(CCN(C)C)C2)cs1 (stereo not drawn) | 11.1
COCCNC(=O)C(C)n1cc(Br)cn1 (stereo not drawn) | -15.1
